Columns and labels:
[1] = system: T mentagrophytes (ATCC-28146); test: Terbinafine susceptibility testing of isolates by culture on terbinafine-containing agar (CLSI M38-A3); conditions: wild type strain ATCC-28146
Protocol: (§1) The isolates are re-tested for terbinafine drug resistance by plating the isolates on the sabouraud dextrose agar (SDA)/Potato dextrose agar (PDA) plates containing different concentration of terbinafine. Reagent-grade terbinafine (TRB) were obtained in the powder form (Sigma-Aldrich, Missouri, USA). Drug stock solutions were prepared in dimethyl sulfoxide (DMSO). The dermatophyte isolates were cultured on SDA/PDA for 21-30 days. In vitro testing of the susceptibility to Terbinafine allylamine was performed according to the Clinical and Laboratory Standards Institute (CLSI) document M38-A3 (CLSI, 2018). The drugs were analyzed at the final concentration in the range of 0.002-32 μg/ml for TRB.
(§2) Wild type strains for T rubrum (ATCC-22402) and T mentagrophytes (ATCC-28146) are obtained from ATCC.

T rubrum (ATCC-22402) = test: as above; conditions: wild type strain ATCC-22402
Protocol: as §1, §2

CN(C/C=C/C#CC(C)(C)C)Cc1cccc2ccccc12 [terbinafine]
terbinafine susceptibility by culture [1]: susceptible
terbinafine susceptibility by culture (T rubrum (ATCC-22402)): susceptible
